From ChEMBL document CHEMBL1140667, “Pyrrolidino-tetrahydroisoquinolines bearing pendant heterocycles as potent dual H3 antagonist and serotonin transporter inhibitors” (Bioorg Med Chem Lett, 2007) come the findings set out here.

Data set [1] concerns the target T1, Histamine H3 receptor (Homo sapiens, UniProt Q9Y5N1). In words: Antagonist activity at human histamine H3 receptor. The data set is classed as functional. The following applies: read-out: pA2 (converted).
Data set [2] deals with T1, Histamine H3 receptor. Kind of data set: Binding affinity to human histamine H3 receptor.
For data set [3], the system named is Rattus norvegicus. Kind of data set: Increase in dopamine level in rat brain at 3 mg/kg, sc within 4 hrs relative to basal level. Details: dose 3 mg/kg, route subcutaneous. To be noted: in vivo. Type of data set: ADME, organism-based.
The nature of data set [4]: Mean residence time in mouse plasma at 10 mg/kg, ip. The data set is classed as ADME, organism-based. Set-up: dose 10 mg/kg, route intraperitoneal.
The target of data set [5] is Sodium-dependent noradrenaline transporter (Homo sapiens, UniProt P23975). In words: Binding affinity to NET.
Sequence of Sodium-dependent noradrenaline transporter (P23975 whole entry): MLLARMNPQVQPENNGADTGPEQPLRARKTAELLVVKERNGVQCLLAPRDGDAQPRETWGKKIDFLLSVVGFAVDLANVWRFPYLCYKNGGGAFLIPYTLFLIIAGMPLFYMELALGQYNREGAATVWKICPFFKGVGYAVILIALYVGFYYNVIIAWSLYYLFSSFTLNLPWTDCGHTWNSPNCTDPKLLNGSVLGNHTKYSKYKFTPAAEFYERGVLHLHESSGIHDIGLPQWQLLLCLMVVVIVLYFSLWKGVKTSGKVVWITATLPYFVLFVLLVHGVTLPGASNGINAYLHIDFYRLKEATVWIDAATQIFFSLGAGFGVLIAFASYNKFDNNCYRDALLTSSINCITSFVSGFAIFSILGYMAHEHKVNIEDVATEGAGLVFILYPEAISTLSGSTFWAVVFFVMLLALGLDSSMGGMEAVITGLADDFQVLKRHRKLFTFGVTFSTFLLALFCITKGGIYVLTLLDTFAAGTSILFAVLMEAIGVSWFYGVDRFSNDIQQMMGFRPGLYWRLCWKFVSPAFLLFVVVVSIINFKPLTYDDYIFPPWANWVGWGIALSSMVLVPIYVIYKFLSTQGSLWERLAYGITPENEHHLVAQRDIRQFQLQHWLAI
A short description of data set [6]: Mean residence time in mouse brain at 10 mg/kg, ip. Details: dose 10 mg/kg, route intraperitoneal. The data set is classed as ADME, organism-based.
In data set [7] the target is Kappa-type opioid receptor (Homo sapiens, UniProt P41145). Kind of data set: Binding affinity to kappa opioid receptor.
Sequence of Kappa-type opioid receptor (P41145 whole entry): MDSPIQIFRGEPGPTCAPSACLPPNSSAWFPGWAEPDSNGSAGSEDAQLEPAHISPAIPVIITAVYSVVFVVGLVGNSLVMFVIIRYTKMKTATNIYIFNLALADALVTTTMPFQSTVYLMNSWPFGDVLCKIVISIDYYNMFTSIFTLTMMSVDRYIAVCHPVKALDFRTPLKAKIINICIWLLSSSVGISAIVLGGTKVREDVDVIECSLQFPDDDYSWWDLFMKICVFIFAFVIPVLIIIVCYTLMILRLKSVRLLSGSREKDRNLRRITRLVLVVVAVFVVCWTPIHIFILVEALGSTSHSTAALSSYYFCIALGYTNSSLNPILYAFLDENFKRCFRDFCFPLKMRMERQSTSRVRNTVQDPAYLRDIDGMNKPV
The target in data set [8] is Sodium-dependent dopamine transporter (Homo sapiens, UniProt Q01959). In words: Binding affinity to DAT.
Sequence of Sodium-dependent dopamine transporter (Q01959 whole entry): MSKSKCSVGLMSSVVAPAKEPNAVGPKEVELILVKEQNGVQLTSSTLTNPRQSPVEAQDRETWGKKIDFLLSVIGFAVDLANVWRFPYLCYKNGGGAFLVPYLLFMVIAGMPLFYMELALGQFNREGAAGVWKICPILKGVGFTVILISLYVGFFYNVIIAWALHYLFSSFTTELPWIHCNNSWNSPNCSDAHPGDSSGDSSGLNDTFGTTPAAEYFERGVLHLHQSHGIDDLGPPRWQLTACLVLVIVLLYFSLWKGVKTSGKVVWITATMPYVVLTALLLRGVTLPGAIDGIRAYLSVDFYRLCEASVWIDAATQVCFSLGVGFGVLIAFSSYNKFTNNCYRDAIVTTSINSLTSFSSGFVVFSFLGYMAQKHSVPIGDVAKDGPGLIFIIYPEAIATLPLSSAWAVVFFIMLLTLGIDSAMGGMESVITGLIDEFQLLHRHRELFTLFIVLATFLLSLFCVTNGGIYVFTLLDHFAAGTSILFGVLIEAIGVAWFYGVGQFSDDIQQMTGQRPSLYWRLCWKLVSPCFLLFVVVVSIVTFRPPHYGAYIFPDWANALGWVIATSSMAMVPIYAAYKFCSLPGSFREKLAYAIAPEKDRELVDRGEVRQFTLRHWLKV
Data set [9] in a line: Drug level in mouse brain at 10 mg/kg, ip after 2 hrs. The data set is classed as ADME, organism-based. Details: dose 10 mg/kg, route intraperitoneal. To be noted: read-out: Drug uptake.
Data set [10] can be described thus: Plasma concentration in mouse at 10 mg/kg, ip after 15 mins. The data set is classed as ADME, organism-based. Details: dose 10 mg/kg, route intraperitoneal.
For data set [11], the system named is Rattus norvegicus. In words: Increase in 5-hydroxytryptamine level in rat brain at 3 mg/kg, sc within 4 hrs relative to basal level. The data set is classed as ADME, organism-based. Details: dose 3 mg/kg, route subcutaneous. The following applies: in vivo.
Data set [12] is described as follows: Ratio of log AUC in brain to plasma in mouse at 10 mg/kg, ip. The data set is classed as ADME, organism-based. Details: dose 10 mg/kg, route intraperitoneal. The following applies: brain and plasma, read-out: BPR.

Structures are written as SMILES.

T1 sequence (Q9Y5N1 whole entry): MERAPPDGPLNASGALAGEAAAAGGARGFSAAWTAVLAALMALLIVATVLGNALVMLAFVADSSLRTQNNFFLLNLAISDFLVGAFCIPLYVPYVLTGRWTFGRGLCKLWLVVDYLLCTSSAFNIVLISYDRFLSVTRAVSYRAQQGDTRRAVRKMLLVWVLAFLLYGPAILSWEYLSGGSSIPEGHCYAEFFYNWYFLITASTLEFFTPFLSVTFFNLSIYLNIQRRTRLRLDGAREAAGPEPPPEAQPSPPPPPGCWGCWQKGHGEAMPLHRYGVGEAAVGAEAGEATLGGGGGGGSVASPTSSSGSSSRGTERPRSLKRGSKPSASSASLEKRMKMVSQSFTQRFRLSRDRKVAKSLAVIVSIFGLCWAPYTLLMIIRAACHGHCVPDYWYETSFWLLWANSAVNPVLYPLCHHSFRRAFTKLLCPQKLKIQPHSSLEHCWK

As for `c1ncc([C@@H]2CN3CCC[C@@H]3c3cc(OCCCN4CCOCC4)ccc32)s1`, on Histamine H3 receptor [1], the Kb is 3.16 nM. This molecule came in with a Ki on Histamine H3 receptor [2] of 3.7 nM.
As for `c1cnc([C@@H]2CN3CCC[C@@H]3c3cc(OCCCN4CCOCC4)ccc32)cn1`, the Kb at Histamine H3 receptor [1] was 3.16 nM. The molecule further had a Ki at Histamine H3 receptor [2] of 4 nM.
Consider `c1cc([C@@H]2CN3CCC[C@@H]3c3cc(OCCCN4CCOCC4)ccc32)[nH]n1`, for which the Kb at Histamine H3 receptor [1] was 3.16 nM. Further, on Histamine H3 receptor [2], the Ki worked out at 4 nM.
Regarding `c1cnn(-c2ccc([C@@H]3CN4CCC[C@@H]4c4cc(OCCCN5CCOCC5)ccc43)cc2)c1`, on Histamine H3 receptor [1], the Kb is 3.16 nM. At Histamine H3 receptor [2], this molecule returned a Ki of 5.3 nM.
In the same order, the values of `c1cncc([C@@H]2CN3CCC[C@@H]3c3cc(OCCCN4CCOCC4)ccc32)c1` are 3.16 nM and 1.6 nM.
Turning to `c1cn(-c2ccc([C@@H]3CN4CCC[C@@H]4c4cc(OCCCN5CCOCC5)ccc43)cc2)cn1`, the Kb on Histamine H3 receptor [1] was 3.16 nM. For the same molecule, on Histamine H3 receptor [2], affinity was put at a Ki of 5.7 nM.
In the case of `c1csc([C@@H]2CN3CCC[C@@H]3c3cc(OCCCN4CCOCC4)ccc32)n1`, at Histamine H3 receptor [1], the Kb is 3.16 nM. This molecule registered a Ki at Histamine H3 receptor [2] of 3.3 nM.
Regarding `c1cncc([C@@H]2CN3CCC[C@@H]3c3cc(OCCCN4CCCCC4)ccc32)c1`, at Histamine H3 receptor [1], the Kb is 3.16 nM. Besides, the Activity in the data set on Rattus norvegicus [3] is reported as 500%; with Rattus norvegicus [11], 300%. Also, the values for the MRT in data set [4] and in data set [6] were 6.57 h and 31.3 h, respectively. The Ki in data set [5] worked out at 460 nM; in [7] it was 74 nM; in [8] it was 107 nM; on Histamine H3 receptor [2], 0.8 nM. Further, the concentration at 2 h in data set [9] turned out to be 920 nM. In [10], the concentration at 0.25 h came out at 1430 nM. Also, in [12], the Kp turned out to be 0.75.
`c1ccn2c([C@@H]3CN4CCC[C@@H]4c4cc(OCCCN5CCOCC5)ccc43)cnc2c1`: the Kb at Histamine H3 receptor [1] was 3.16 nM. In addition, the Ki on Histamine H3 receptor [2] was 2 nM.
In the same order, the values of `c1cc([C@@H]2CN3CCC[C@@H]3c3cc(OCCCN4CCOCC4)ccc32)cs1` are 3.16 nM and 3 nM.
Regarding `c1ccc([C@@H]2CN3CCC[C@@H]3c3cc(OCCCN4CCOCC4)ccc32)nc1`, the Kb at Histamine H3 receptor [1] is 3.16 nM. At Histamine H3 receptor [2], the inhibition constant Ki was 2.7 nM.
Turning to `c1ccc([C@@H]2CN3CCC[C@@H]3c3cc(OCCCN4CCCCC4)ccc32)nc1`, at Histamine H3 receptor [1], the Kb is 3.16 nM. The same molecule returned a Ki on Histamine H3 receptor [2] of 0.8 nM.
For `c1cc([C@@H]2CN3CCC[C@@H]3c3cc(OCCCN4CCCCC4)ccc32)ccn1`, at Histamine H3 receptor [1], the Kb was 3.16 nM. The inhibition constant (Ki) on Histamine H3 receptor [2] stood at 1 nM.
